Peptide text beside a SMILES is read from it.
Tests used:
Format in all cases: cell-based, Pseudomonas aeruginosa
P. aeruginosa ATCC 27853 = assay: MIC, broth microdilution (CLSI), ATCC reference strain
Method: The minimum inhibitory concentration (MIC) of synthetic peptides was determined using the broth microdilution method in cation-adjusted Mueller-Hinton broth (MHB2 – Sigma-Aldrich, St. Louis, MO, United States), according to the recommendations of the Clinical and Laboratory Standards Institute ([CLSI, 2012]), against four reference strains, namely, P. aeruginosa ATCC 27853, E. coli ATCC 25922, S. aureus ATCC 25923 and Enterococcus faecalis ATCC 29212. MIC values of peptide 3.1-PP4 were also determined against MDR clinical isolates of P. aeruginosa (PA002, PA004, Pa3, Pa4), E. coli (Ec1, Ec2, EC001, EC002, EC003) and K. pneumoniae (KP004, KP007, KP010). The peptides were tested in the concentration range of 1–1024 μg/mL. The minimum bactericidal concentration (MBC) was determined as previously reported ([Bessa et al., 2018]). According to CLSI guidelines for antimicrobial susceptibility testing, MIC values were determined for all peptides against ATCC reference strains of two Gram-positive (S. aureus ATCC 25923 and E. faecalis ATCC 29212), and two Gram-negative (P. aeruginosa ATCC 27853 and E. coli ATCC 25922) bacterial species, and are shown in Table 2.

[1] = tested on: preformed biofilms of MDR P. aeruginosa isolates; assay: Effect on 24 h preformed biofilms (OD600 of planktonic phase); settings: 20 × MIC, vs non-treated biofilm
Method: The efficacy of peptide 3.1-PP4 on 24 h preformed biofilms of PA002, PA004, KP004, KP007, and KP010 was also evaluated ([Gomes et al., 2014]). Briefly, biofilms were grown in TSB from a starting inoculum of 1 × 10^6 CFU/mL in 96-well microtiter plates. […] The optical density at 600 nm (OD600) was measured at time 0 and after incubation for 24 h at 37°C. The reduction in the biofilm proliferation was calculated in comparison to the respective non-treated biofilms. Two independent experiments were performed in triplicate.
In the case of control biofilms, the second 24 h growth period occurred in the absence of the peptide. Based on the apparent higher efficiency of peptide 3.1-PP4 to inhibit the formation of K. pneumoniae than P. aeruginosa biofilms, only two MDR isolates of the latter were included in this assay, whereas three MDR K. pneumoniae were tested. Optical density of the planktonic phase, as a measure of biofilm proliferation, was reduced in all peptide-treated biofilms, ranging from 3 to 21% reduction on P. aeruginosa isolates, and from 34 to 56% reduction on K. pneumoniae isolates (Table 4).

[2] = tested on: MDR P. aeruginosa isolates (PA002, PA004, Pa3); assay: Inhibition of biofilm formation, crystal violet assay; settings: in TSB
Method: The ability of peptide 3.1-PP4 to inhibit the biofilm formation by three P. aeruginosa isolates (PA002, PA004, Pa3) and by three K. pneumoniae isolates (KP004, KP007 and KP010) was assessed at concentrations equal to the MIC, 1/2 × MIC and 1/4 × MIC in tryptic soy broth – (TSB – Liofilchem s.r.l., Italy) using the crystal violet assay as reported by [Gomes et al. (2014)]. Two independent experiments were performed in triplicate.
Some of the MDR isolates of P. aeruginosa and K. pneumoniae were randomly selected to form biofilms in the absence (controls) and presence (at MIC, 1/2 × MIC and 1/4 × MIC) of the peptide 3.1-PP4. In this assay, the test compounds were used at sub-inhibitory concentrations, since if they had been present at the MIC or higher concentrations, bacteria would be killed before starting to produce the biofilms.
FIGURE 1 Biofilm biomass quantitation of biofilms formed in the presence of peptide 3.1-PP4. Biofilms of three MDR P. aeruginosa (PA002, Pa3, and PA004) and of three MDR K. pneumoniae (KP004, KP007, and KP010) were formed in the presence of the peptide at three different concentrations, MIC, 1/2 × MIC, and 1/4 × MIC. Control biofilms were grown in absence of the peptide. Two independent experiments were performed in triplicate. Error bars represent SD. […]

SMILES: CC(C)C[C@H](NC(=O)[C@H](Cc1c[nH]c2ccccc12)NC(=O)[C@H](CCCCN)NC(=O)[C@H](CC(C)C)NC(=O)[C@H](CC(C)C)NC(=O)[C@H](CCCCN)NC(=O)[C@@H](N)CCCCN)C(=O)N[C@@H](CC(C)C)C(=O)N[C@@H](CCCCN)C(=O)N[C@@H](CC(C)C)C(=O)N[C@@H](CC(C)C)C(=O)N[C@@H](CCCCN)C(=O)N[C@H](C(=O)N[C@H](C(=O)N[C@@H](CCCCN)C(=O)N[C@@H](CO)C(N)=O)[C@@H](C)O)[C@@H](C)O [Peptide 3.1-PP4] (H-KKLLKWLLKLLKTTKS-NH2; N-terminus assumed)
- MIC (P. aeruginosa ATCC 27853; ATCC 27853): 2.1 µM
- MIC (P. aeruginosa ATCC 27853; P. aeruginosa ATCC 27853, broth microdilution in MHB2, CLSI, range tested 1–1024 μg/mL): 4 µg/mL
- MIC (P. aeruginosa ATCC 27853; P. aeruginosa ATCC 27853, broth microdilution in MHB2, CLSI, value in parentheses): 2 µM
- % reduction in biofilm proliferation upon treatment ([1]; isolate PA002, 24 h preformed biofilm): 2.8%
- % reduction in biofilm proliferation upon treatment ([1]; isolate PA004, 24 h preformed biofilm): 21%
- biofilm formation (crystal violet absorbance at 595 nm) ([2]; peptide at 1/2 and 1/4 of the MIC, three P. aeruginosa isolates): does not significantly inhibit biofilm formation
- biofilm formation (crystal violet absorbance at 595 nm) ([2]; peptide at MIC, exception isolate PA002, two experiments in triplicate): no biofilm was actually produced

Reference: paper PMC6710338, “Turning a Collagenesis-Inducing Peptide Into a Potent Antibacterial and Antibiofilm Agent Against Multidrug-Resistant Gram-Negative Bacteria” (Frontiers in Microbiology, 2019)
